Source: patent publication US20080287480A1, “Therapeutic Combination Comprising a Nmda Receptors Blocker and a Narcotic Analgesic Substance” (Chiesi Farmaceutici S.p.A., priority 2005, published 2008)
Where two headings read alike, the source gives them in different places.

Experiments:
Neuropathic rats [1] = experiment: Cold allodynia (chilled metal floor) in chronic constriction injury model of neuropathic pain; assay type: in vivo, rat; conditions: mean ± s.e.m.; 60 minutes after treatment; 5±1° C. floor; CHF3381 30 mg/kg p.o., morphine 0.1 mg/kg s.c., alone or combined; vehicle 2.90±0.41 s
Method: (§1) The animal model of chronic pain was the same of Example 1.
Neuropathic rats were placed upon a metal floor chilled by an underlying water bath (5±1° C.) for a maximum of 20 s. The animals responded to the contact with the cold surface by lifting the paw on the ligated side off the floor. […] For each set of experiments, animals were pre-screened twice with 20 min interval between tests, in order to select animals displaying clear signs of allodynia, i.e. animals with a paw withdrawal latency on the ligated side of <10 s in both trials. […] The latency to paw withdrawal was then determined at 60 minutes after the administration of vehicle, CHF3381 (30 mg/kg p.o.) alone, morphine (0.1 mg/kg s.c.) alone or their combination.

mice = conditions: mean ± s.e.m.
Method: The animal model of inflammatory was a slight modification of the mouse paw formalin test originally described by Wheeler-Aceto H et al in Psychopharmacology 104, 35-44 (1991). Before formalin injection, mice were placed individually into clear plastic cylinders. After adaptation to the cage, 20 μl of 1% formalin was injected into the plantar surface of the left hind paw. Morphine was administered 30 min before formalin injection.
Mice, divided randomly into eight groups (13-16 animals/group), received treatment once daily for 4 days as follows: groups g1 and g2 received saline, 10 ml/kg i.p.; groups g3 and g4 received morphine 50 mg/kg i.p.; group g5 received morphine 50 mg/kg and CHF3381 30 mg/kg i.p.; group g6 received morphine 50 mg/kg and CHF3381 60 mg/kg i.p. On day 5, the mice received saline (g1 and g3), or morphine 6 mg/kg, i.p. (g2, g4, g5 and g6).
The amount of time, in seconds, the animals spent licking and flinching the injected paw from 10 to 40 min after formalin injection, was used as measurement of pain intensity.
The level of significance was set at P<0.05.

Neuropathic rats [2] = experiment: Mechanical hyperalgesia (analgesymeter, Randall method) in chronic constriction injury model of neuropathic pain; assay type: in vivo, rat; conditions: mean ± s.e.m.; CHF3381 30 mg/kg p.o., morphine 0.1 mg/kg s.c., alone or combined; cut-off 500 g; vehicle 105.7±8.2 g
Method: as §1
Nerve injured rats developed mechanical hyperalgesia […]. Indeed, in these animals the mean paw threshold was decreased to about 110 g on the ligated side compared to the contralateral side (about 350 g; P<0.01).
Mechanical hyperalgesia was assessed in neuropathic rats by using an analgesymeter according to the method reported in Randall L O et al (Arch Int Pharmacodyn Ther 1957, 111, 409-419). Mechanical nociceptive thresholds were evaluated by measuring paw withdrawal thresholds to an increasing pressure stimulus applied to the distal portion of the plantar surface of the hind paw. The site of the stimulation was on area of the hind paw between the pads at the base of the third and forth digit. A cut-off was set at 500 g to prevent any tissue damage and the endpoint was taken as a complete paw withdrawal.

Nerve injured rats = experiment: Mechanical allodynia (Electronic Von Frey) in chronic constriction injury model of neuropathic pain; assay type: in vivo, rat; conditions: MPE ± s.e.m.; 60 minutes after administration; CHF3381 30 mg/kg p.o., morphine 0.1 mg/kg s.c., alone or combined; vehicle 0.15±0.06
Source text: The animal model of chronic pain was a slight modification of the chronic constriction injury model of neuropathic pain originally described by Bennett G J et al in Pain 1988, 33, 87-107.
Nerve injured rats were placed on an elevated screen in a clear testing chamber and allowed to acclimate to the testing environment before any measurements were taken. The mechanical stimulus was delivered underneath to the plantar surface of the left hind paw of the rat by using the automated testing device Electronic Von Frey.
A steel rod was pushed against the hind paw with ascending force. The ramping of the force went from 0 to 50 g over a 20 s period. When the animal withdrew its hind paw, the mechanical stimulus was automatically withdrawn and the force at which the animal withdrew its paw was recorded. To quantify the mechanical sensitivity of the hind paws, withdrawal thresholds were taken from five consecutive trials with at least 10 s between each trial. The withdrawal threshold was taken to be the mean of the five trials (baseline value). […]
The values are expressed as Maximum Possible Effect (MPE)±s.e.m
The MPE value was calculated as follow: MPE=(PDR−IBR)/(CBR−IBR), where PDR is the post drug response of the ipsilateral paw, IBR is the ipsilateral paw baseline response and CBR is the contralateral paw baseline response. […]

In the case of `CN1CC[C@]23c4c5ccc(O)c4O[C@H]2[C@@H](O)C=C[C@H]3[C@H]1C5` [morphine], the “mean paw withdrawal latency (cold allodynia)” value (Neuropathic rats [1]) is reported as 5.17 ± 0.86 s, the “mean licking time, 10 to 40 min after formalin injection” value (mice; g2: saline i.p. days 1-4, morphine 6 mg/kg i.p. day 5, saline control g1 119.9±17.0) is reported as 65.9 ± 18.3 s and the “mean licking time, 10 to 40 min after formalin injection” value (mice; g3: morphine 50 mg/kg i.p. days 1-4, saline i.p. day 5) is reported as 143.9 ± 19.2 s. The “licking time, 10 to 40 min after formalin injection” value (mice; g4: morphine 50 mg/kg i.p. days 1-4, morphine 6 mg/kg i.p. day 5) was 112.1 ± 13.4 s, the “Paw withdrawal threshold (mechanical hyperalgesia)” value (Neuropathic rats [2]) was 105.8 ± 6.0 g and the “Maximum Possible Effect (MPE) on paw withdrawal threshold to mechanical stimulation” value (Nerve injured rats) was 0.21±0.07.
